Data published in patent publication US20110182953A1, “P[…] OF CALCIUM ACAMPROSATE” (priority 2009, published 2011).

Test: accelerated stability tests
Format: physicochemical
Conditions: exposed to heat and/or humidity sources

CC(=O)NCCCS(=O)(=O)O [form B, calcium acamprosate]
stability of the polymorphic form in accelerated stability tests: does not alter
